Laboratory results published in US20060106075A1, “Benzothiazole derivatives having beta-2-adrenoreceptor agonist activity” (priority 2002, published 2006).
Read-outs that look alike come from different tables or passages of the source.

Target: β2-adrenoceptor (Homo sapiens, UniProt P07550)
Test: β2-adrenoceptor binding potency, classical filtration binding assay
Source text: Accordingly the invention also provides a compound of formula I in free or salt form for use as a pharmaceutical.

β2-adrenoceptor, sequence (P07550 whole entry, species assumed): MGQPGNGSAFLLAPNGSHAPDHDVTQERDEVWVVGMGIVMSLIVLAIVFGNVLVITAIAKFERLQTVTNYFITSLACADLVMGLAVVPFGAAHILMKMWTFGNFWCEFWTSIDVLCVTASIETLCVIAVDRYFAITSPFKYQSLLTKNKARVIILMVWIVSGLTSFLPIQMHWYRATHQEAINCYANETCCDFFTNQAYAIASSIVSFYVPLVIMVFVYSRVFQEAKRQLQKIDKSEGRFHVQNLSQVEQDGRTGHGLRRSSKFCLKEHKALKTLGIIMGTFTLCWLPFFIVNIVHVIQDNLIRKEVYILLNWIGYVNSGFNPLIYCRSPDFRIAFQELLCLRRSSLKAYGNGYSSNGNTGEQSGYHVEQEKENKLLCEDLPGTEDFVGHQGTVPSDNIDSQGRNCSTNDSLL

Compound	Ki (read-out: Ki (β2)) [nM]	Ki [nM]
O=c1[nH]c2c(O)ccc(C(O)CNCCc3ccc(OCCCCc4ccccc4)cc3)c2s1 (centres unmarked) [Example 1, 4-hydroxy7-(1-hydroxy-2-{2-[4-(4-phenyl-butoxy)-phenyl]-ethylamino}-ethyl)-3H-benzothiazol-2-one]	0.3	
COc1ccc(C[C@@H](C)NCC(O)c2ccc(O)c3[nH]c(=O)sc23)cc1 (some centres unmarked) [Example 3]		1.6
